Assay results taken from patent US4845077A, “Method of inducing ovulation” (Serono Laboratories, Inc., priority 1987, dated 1989).

System: normal cynomolgus monkeys
Assay: GnRH antagonist plus fixed gonadotropin regimen (FSH/LH or FSH only) followed by hCG
Format: in vivo
Details: GnRH antagonist 1.0 mg/kg/day with gonadotropin 25 IU/day im, cycle days 3-9, versus gonadotropin-only controls
Description: All of the groups received a fixed regimen of gonadotropin therapy for seven consecutive days (25 IU/day/im, cycle days 3-9) followed by hCG (1,000 IU/im) on cycle day 10.

## (Ac-pClPhe^1,pClPhe^2, DTrp^3, DArg^6, DAla^10)GnRH HCl [GnRH antagonist]
  variability in response to gonadotropin treatment: less
